According to publication PMC3083694, “Effects of Intermediates between Vitamins K2 and K3 on Mammalian DNA Polymerase Inhibition and Anti-Inflammatory Activity” (International Journal of Molecular Sciences, 2011):

Tests used:
[1] = biological target: T1, Human DNA polymerase γ (Homo sapiens, UniProt P54098); parameters: method as in PMID 18312466, PMID 18698499, PMID 20030669, PMID 20881898; conditions: earlier work of the authors; cited from earlier work
T1 construct: made in house
T1 sequence (P54098 1-1239): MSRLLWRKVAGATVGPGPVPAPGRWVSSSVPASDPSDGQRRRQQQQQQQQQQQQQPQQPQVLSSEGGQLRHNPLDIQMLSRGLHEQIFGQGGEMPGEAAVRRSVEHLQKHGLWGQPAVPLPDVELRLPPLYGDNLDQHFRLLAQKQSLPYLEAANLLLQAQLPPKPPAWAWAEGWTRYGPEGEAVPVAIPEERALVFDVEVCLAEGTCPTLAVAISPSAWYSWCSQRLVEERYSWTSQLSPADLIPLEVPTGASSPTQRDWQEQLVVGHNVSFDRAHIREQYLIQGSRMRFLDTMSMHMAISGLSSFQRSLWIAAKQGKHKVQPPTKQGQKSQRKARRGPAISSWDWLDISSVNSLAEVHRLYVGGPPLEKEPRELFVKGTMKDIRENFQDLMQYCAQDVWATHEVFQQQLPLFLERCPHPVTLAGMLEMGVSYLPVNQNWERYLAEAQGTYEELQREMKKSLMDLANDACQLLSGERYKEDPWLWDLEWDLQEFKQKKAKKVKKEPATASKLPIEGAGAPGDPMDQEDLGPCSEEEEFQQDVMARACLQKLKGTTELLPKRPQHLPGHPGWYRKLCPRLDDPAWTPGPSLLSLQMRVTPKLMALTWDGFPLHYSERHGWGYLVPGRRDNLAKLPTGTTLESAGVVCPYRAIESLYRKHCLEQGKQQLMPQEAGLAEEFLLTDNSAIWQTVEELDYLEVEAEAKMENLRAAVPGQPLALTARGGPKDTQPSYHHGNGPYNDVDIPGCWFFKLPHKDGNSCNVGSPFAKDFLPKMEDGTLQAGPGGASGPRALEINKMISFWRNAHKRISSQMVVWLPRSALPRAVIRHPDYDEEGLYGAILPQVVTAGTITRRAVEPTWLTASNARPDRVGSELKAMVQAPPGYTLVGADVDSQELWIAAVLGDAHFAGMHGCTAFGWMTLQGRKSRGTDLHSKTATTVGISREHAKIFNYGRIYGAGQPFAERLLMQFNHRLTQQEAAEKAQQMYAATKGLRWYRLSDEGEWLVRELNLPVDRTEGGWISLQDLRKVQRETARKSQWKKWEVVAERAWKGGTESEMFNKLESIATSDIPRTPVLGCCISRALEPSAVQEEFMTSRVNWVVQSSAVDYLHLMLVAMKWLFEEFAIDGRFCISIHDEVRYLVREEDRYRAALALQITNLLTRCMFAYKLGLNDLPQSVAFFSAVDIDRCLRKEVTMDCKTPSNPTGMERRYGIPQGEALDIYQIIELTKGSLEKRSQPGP

[2] = biological target: T1, Human DNA polymerase γ; test: DNA polymerase activity assay, human pol γ; format: biochemical; conditions: 50 μM of each compound; Figure 2
Method: Pols from mammals, a fish (cherry salmon), an insect (fruit fly) and a plant (cauliflower) were purified, and prokaryotic pols and other DNA metabolic enzymes, such as T7 RNA polymerase, T4 polynucleotide kinase and bovine deoxyribonuclease I, were purchased as described in our previous report. The activities of all pols and other DNA metabolic enzymes were measured as described in previous reports.
The components of the pol assay were poly(dA)/oligo(dT)18 and dTTP as the DNA template-primer and 2′-deoxyribonucleoside 5′-triphosphate (dNTP) substrate, respectively. VK2, VK3, and their synthesized derivatives (i.e., MK-3, MK-2 and MK-1) were dissolved in dimethyl sulfoxide (DMSO) at various concentrations and sonicated for 30 s. The sonicated samples (4 μL) were mixed with 16 μL of each pol enzyme (final amount, 0.05 units) in 50 mM Tris-HCl (pH 7.5) containing 1 mM dithiothreitol, 50% glycerol and 0.1 mM EDTA, and kept at 0 °C for 10 min. These inhibitor–enzyme mixtures (8 μL) were added to 16 μL of each standard enzyme reaction mixture (50 mM Tris-HCl [pH 7.5], 1 mM dithiothreitol, 1 mM MgCl2, 15% glycerol, 10 μM poly(dA)/oligo(dT)18 and 10 μM [^3H]-dTTP), and incubation was carried out at 37 °C for 60 min, except for Taq pol, which was incubated at 74 °C for 60 min. Activity without the inhibitor was considered to be 100%, and the activity remaining at each concentration of inhibitor was determined relative to this value. One unit of pol activity was defined as the amount of enzyme that catalyzed the incorporation of 1 nmol dNTP (dTTP) into the synthetic DNA template-primer (poly(dA)/oligo(dT)18, A/T = 2/1) in 60 min at 37 °C under normal reaction conditions for each enzyme (scintillation counts: approximately 1 pmol of incorporated radioactive nucleotides = 100 cpm).

[3] = tested on: TPA-induced edema on mouse ear; test: TPA-induced mouse ear inflammatory test; format: in vivo; conditions: 250 or 500 μg applied to ear 30 min before TPA (0.5 μg); edema evaluated after 7 h; Figure 3
Method: All animal studies were performed according to the guidelines outlined in the “Care and Use of Laboratory Animals” of Kobe University. The animals were anesthetized with pentobarbital before undergoing cervical dislocation. Female 8-week-old C57BL/6 mice that had been bred in-house with free access to food and water were used for all experiments. All of the mice were maintained under a 12-h light/dark cycle and housed at a room temperature of 25 °C.
The mouse inflammatory test was performed according to Gschwendt’s method. In brief, an acetone solution of the VK2 and VK3 intermediates (250 or 500 μg in 20 μL) or 20 μL of acetone as a vehicle control was applied to the inner part of the mouse ear. Thirty minutes after the test compound was applied, a TPA solution (0.5 μg/20 μL of acetone) was applied to the same part of the ear. To the other ear of the same mouse, methanol, followed by TPA solution, was applied as a control. After 7 h, a disk (6 mm diameter) was obtained from the ear and weighed. The inhibitory effect (IE) is presented as a ratio of the increase in weight of the ear disks: IE=[(TPA only)−(tested compound plus TPA)]/[(TPA only)−(vehicle)]×100

[4] = tested on: LPS-induced production of TNF-α in RAW264.7 cells; test: LPS-induced TNF-α production in mouse macrophages (ELISA); format: cell-based; conditions: 10 and 50 μM tested, concentration not specified, Figure 4
Method: A mouse macrophage cell line, RAW264.7, was obtained from American Type Culture Collection (ATCC) (Manassas, VA, U.S.). The cells were cultured in Eagle’s Minimum Essential Medium (MEM) supplemented with 4.5 g of glucose per liter plus 10% fetal calf serum, 5 mM L-glutamine, 50 units/mL penicillin and 50 units/mL streptomycin. The cells were cultured at 37 °C in standard medium in a humidified atmosphere of 5% CO2–95% air.
RAW264.7 cells were placed in a 12-well plate at 5 × 10^4 cells/well and incubated for 24 h. The cells were pretreated with the VK2 and VK3 intermediates (final concentrations of 10 and 50 μM) for 30 min before the addition of 100 ng/mL of LPS. After stimulation with LPS for 24 h, the cell culture medium was collected to measure the amount of TNF-α secreted. The concentration of TNF-α in the culture medium was quantified by using a commercially available enzyme-linked immunosorbent assay (ELISA) development system (Bay Bioscience Co., Ltd., Kobe, Japan) in accordance with the manufacturer’s protocol.

[5] = biological target: T2, Human DNA polymerase λ (Homo sapiens, UniProt Q9UGP5); parameters: method as in PMID 19502749, PMID 14599551; conditions: reported previously; cited from earlier work
T2 construct: made in house
T2 sequence (Q9UGP5 1-575): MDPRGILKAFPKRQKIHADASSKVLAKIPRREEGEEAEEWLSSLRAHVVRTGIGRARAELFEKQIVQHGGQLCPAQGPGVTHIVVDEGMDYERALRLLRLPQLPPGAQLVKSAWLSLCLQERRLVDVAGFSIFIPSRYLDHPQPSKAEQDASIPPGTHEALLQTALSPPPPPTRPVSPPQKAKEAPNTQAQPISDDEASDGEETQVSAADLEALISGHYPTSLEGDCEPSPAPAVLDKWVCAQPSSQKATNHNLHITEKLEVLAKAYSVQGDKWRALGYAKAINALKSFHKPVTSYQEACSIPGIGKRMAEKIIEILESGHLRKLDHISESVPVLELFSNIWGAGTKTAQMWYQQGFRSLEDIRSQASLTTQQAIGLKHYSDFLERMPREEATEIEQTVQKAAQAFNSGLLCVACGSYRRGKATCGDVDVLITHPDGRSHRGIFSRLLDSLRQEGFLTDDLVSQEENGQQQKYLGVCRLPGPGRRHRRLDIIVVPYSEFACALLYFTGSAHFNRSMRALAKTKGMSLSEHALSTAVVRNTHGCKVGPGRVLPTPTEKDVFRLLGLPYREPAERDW

Row | SMILES | Inhibitor of human pol γ [1] | Inhibitory effect on human pol γ activity [2] | Anti-inflammatory activity toward TPA-induced edema on mouse ear [3] | Inhibitory effect on LPS-stimulated TNF-α production [4] | Inhibitor of pol λ (selectivity) [5]
1 | CC1=C(C/C=C(\C)CCC[C@H](C)CCC[C@H](C)CCCC(C)C)C(=O)c2ccccc2C1=O [VK1, phylloquinone] | not | – | – | – | –
2 | CC1=CC(=O)c2ccccc2C1=O [VK3, menadione, reference compound] | potent and specific inhibitor | selectively inhibited pol γ | weak effect | moderate inhibitory effect | –
3 | COc1cc(/C=C/C(=O)CC(=O)/C=C/c2ccc(O)c(OC)c2)ccc1O [curcumin] | – | – | – | – | pol-λ-specific inhibitor
